# Measured values from US8410065B2, “Macrolides and their use” (Basilea Pharmaceutica AG, priority 2008, dated 2013).
# System: human PDE4
# Experiment: PDE4 inhibition, in vitro enzymatic IMAP FP assay
# Assay type: biochemical
# Settings: PDE4 partially purified from undifferentiated human monocytic cells (U-937); fluorescently labeled cAMP substrate; 90 minutes at room temperature; fluorescence polarization
# Description: PDE4 specifically hydrolyzes cAMP and releases the product AMP. The potency of PDE inhibition by said agents is determined in an in vitro enzymatic assay. The assay is commercially available (IMAP™ FP assay Molecular Devices Corp. (MDS)) and is optimized for the use of human PDE4. Fluorescently labeled cAMP is hydrolyzed by PDE4 and in a second step, binding of labeled product to a large binding partner allowed product detection by fluorescence polarization (FP) measurements.
# PDE4 is partially purified from undifferentiated human monocytic cells (U-937) according to Thorpy et al. 1992 (J. Pharmacol. Exp. Ther. 263: 1195). […] In addition, PDE4 preparations are validated by inhibition studies with PDE4-specific and unspecific PDE inhibitors.
# Stock solutions of test compounds are made in DMSO and diluted in assay buffer (10 mM Tris-HCl, 10 mM MgCl2, 0.1% BSA 0.05% NaN3, pH 7.2) to the desired concentrations. The solutions used in the assay contained test compound in assay buffer with 2% DMSO.
# 10 μl of substrate (at a concentration recommended by the manufacturer) are mixed with 5 μl of appropriately diluted PDE and 5 μl of test compound solution. 5 μl of reaction buffer with 2% DMSO are used for control reactions. […] After incubation for 90 minutes at room temperature, 60 μl of binding reagent are added as specified by the manufacturer. Binding is allowed to proceed for 30 minutes and fluorescence polarization is measured. Dose dependence of PDE inhibition is measured by assaying dilution series of test compounds in duplicates. IC50 values are determined from the measured activities by curve fitting.
row,SMILES,IC50
1,CC[C@H]1OC(=O)[C@H](C)[C@@H](O[C@H]2C[C@@](C)(OC)[C@@H](O)[C@H](C)O2)[C@H](C)[C@@H](O[C@@H]2O[C@H](C)C[C@@H](OC)[C@@H]2N(C)C)[C@](C)(OC)C[C@@H](C)C(=O)[C@H](C)[C@H]2[C@H](SCCn3cnc4c(N)ncc(C(=O)Nc5c(Cl)cncc5Cl)c43)C(=O)O[C@@]21C (stereo in doubt) [Example 5],110 nM
2,CC[C@H]1OC(=O)[C@H](C)[C@@H](O[C@H]2C[C@@](C)(OC)[C@@H](O)[C@H](C)O2)[C@H](C)[C@@H](O[C@@H]2O[C@H](C)C[C@@H](OC)[C@@H]2N(C)C)[C@](C)(OC)C[C@@H](C)C(=O)[C@H](C)[C@H]2[C@H](SCCN(Cc3ccncc3)c3ccc(OC)c(OC4CCCC4)c3)C(=O)O[C@@]21C (stereo in doubt) [Example 6],1400 nM
3,CC[C@H]1OC(=O)[C@H](C)[C@@H](O[C@H]2C[C@@](C)(OC)[C@@H](O)[C@H](C)O2)[C@H](C)[C@@H](O[C@@H]2O[C@H](C)C[C@H](N(C)CC(C)C)[C@H]2O)[C@](C)(OC)C[C@@H](C)C(=O)[C@H](C)[C@H]2[C@H](SCCN(C(=O)c3ccncc3)c3ccc(OC)c(OC4CCCC4)c3)C(=O)O[C@@]21C (stereo in doubt) [Example 3],13600 nM
4,CC[C@H]1OC(=O)[C@H](C)[C@@H](O[C@H]2C[C@@](C)(OC)[C@@H](O)[C@H](C)O2)[C@H](C)[C@@H](O[C@@H]2O[C@H](C)C[C@H](N(C)C(C)=O)[C@H]2O)[C@](C)(OC)C[C@@H](C)C(=O)[C@H](C)[C@H]2[C@H](SCCOc3cc(C(=O)Nc4c(Cl)cncc4Cl)ccc3OC)C(=O)O[C@@]21C (stereo in doubt) [Example 14],2.7 nM
5,CC[C@H]1OC(=O)[C@H](C)[C@@H](O[C@H]2C[C@@](C)(OC)[C@@H](O)[C@H](C)O2)[C@H](C)[C@@H](O[C@@H]2O[C@H](C)C[C@H](N(C)C(C)=O)[C@H]2O)[C@](C)(OC)C[C@@H](C)C(=O)[C@H](C)[C@H]2[C@H](SCCN(Cc3c(Cl)cncc3Cl)c3ccc(OC)c(OC4CCCC4)c3)C(=O)O[C@@]21C [Example 10],31 nM
6,CC[C@H]1OC(=O)[C@H](C)[C@@H](O[C@H]2C[C@@](C)(OC)[C@@H](O)[C@H](C)O2)[C@H](C)[C@@H](O[C@@H]2O[C@H](C)C[C@H](N(C)C(=O)N3CCOCC3)[C@H]2O)[C@](C)(OC)C[C@@H](C)C(=O)[C@H](C)[C@H]2[C@H](SCCCOc3cc(C(=O)Nc4c(Cl)cncc4Cl)ccc3OC)C(=O)O[C@@]21C (stereo in doubt) [Example 16],220 nM
7,CC[C@H]1OC(=O)[C@H](C)[C@@H](O)[C@H](C)[C@@H](O[C@@H]2O[C@H](C)C[C@H](N(C)C)[C@H]2OC)[C@](C)(OC)C[C@@H](C)C(=O)[C@H](C)[C@H]2[C@H](SCCN(Cc3c(Cl)cncc3Cl)c3ccc(OC)c(OC4CCCC4)c3)C(=O)O[C@@]21C (stereo in doubt) [Example 9],300 nM

# More lines, in order of falling IC50, values ahead:
row,IC50,SMILES
1,4800 nM,CC[C@H]1OC(=O)[C@H](C)[C@@H](O)[C@H](C)[C@@H](O[C@@H]2O[C@H](C)C=C[C@H]2O)[C@](C)(OC)C[C@@H](C)C(=O)[C@H](C)[C@H]2[C@H](SCCn3cnc4c(N)ncnc43)C(=O)O[C@@]21C (stereo in doubt) [Example 1]
2,2800 nM,CC[C@H]1OC(=O)[C@H](C)[C@@H](O[C@H]2C[C@@](C)(OC)[C@@H](O)[C@H](C)O2)[C@H](C)[C@@H](O[C@@H]2O[C@H](C)C[C@H](N(C)CC(C)C)[C@H]2O)[C@](C)(OC)C[C@@H](C)C(=O)[C@H](C)[C@H]2[C@H](SCCn3cnc4c(N)ncnc43)C(=O)O[C@@]21C (stereo in doubt) [Example 2]
3,220 nM,CC[C@H]1OC(=O)[C@H](C)[C@@H](O)[C@H](C)[C@@H](O[C@@H]2O[C@H](C)C[C@@H](OC)[C@@H]2N(C)C)[C@](C)(OC)C[C@@H](C)C(=O)[C@H](C)[C@H]2[C@H](SCCN(Cc3c(Cl)cncc3Cl)c3ccc(OC)c(OC4CCCC4)c3)C(=O)O[C@@]21C (stereo in doubt) [Example 8]
4,220 nM,CC[C@H]1OC(=O)[C@H](C)[C@@H](O)[C@H](C)[C@@H](O[C@@H]2O[C@H](C)C[C@@H](N3CCOCC3)[C@@H]2N(C)C)[C@](C)(OC)C[C@@H](C)C(=O)[C@H](C)[C@H]2[C@H](SCCN(Cc3c(Cl)cncc3Cl)c3ccc(OC)c(OC4CCCC4)c3)C(=O)O[C@@]21C (stereo in doubt) [Example 12]
5,140 nM,CC[C@H]1OC(=O)[C@H](C)[C@@H](O[C@H]2C[C@@](C)(OC)[C@@H](O)[C@H](C)O2)[C@H](C)[C@@H](O[C@@H]2O[C@H](C)C[C@@H](OC)[C@@H]2N(C)C)[C@](C)(OC)C[C@@H](C)C(=O)[C@H](C)[C@H]2[C@H](SCCN(Cc3c(Cl)cncc3Cl)c3ccc(OC)c(OC4CCCC4)c3)C(=O)O[C@@]21C (stereo in doubt) [Example 7]
